Test results from patent US9101769B2, “High density epidural stimulation for facilitation of locomotion, posture, voluntary movement, and recovery of autonomic, sexual, vasomotor, and cognitive function after neurological injury” (The Regents of the University of California, priority 2011, dated 2015).

How the values were obtained:
stepping in animals = test: Pharmacological facilitation of stepping, optimal concentration of illustrative agents (Table 1); type: in vivo
Method: In certain embodiments, the methods described herein are used in conjunction with various pharmacological agents. […] These agents can be used in combination with epidural stimulation and physical therapy as described above.
In certain embodiments, the drugs are administered systemically, while in other embodiments, the drugs are administered locally, e.g., to particular regions of the spinal cord. Drugs that modulate the excitability of the spinal neuromotor networks are combinations of noradrenergic, serotonergic, GABAergic, and glycinergic receptor agonists and antagonists. Illustrative pharmacological agents include, but are not limited to agonists and antagonists to one or more combinations of serotonergic: 5-HT1A, 5-HT2A, 5-HT3, and 5HT7 receptors; to noradrenergic alpha1 and 2 receptors; and to dopaminergic D1 and D2 receptors (see, e.g., Table 1).

[1] = system: rat with complete mid-thoracic spinal cord transection; test: Epidural stimulation coupled with drug therapy, locomotor behavior after complete spinal cord transection (FIG. 1); type: in vivo
Method: FIG. 1 summarizes recent experiments in rats that were carried out to assess the effectiveness of epidural stimulation coupled with combined drug therapy in the treatment of complete spinal cord injuries. The combination of quipazine and 8-0HDPAT with simultaneous epidural stimulation at spinal sites L2 and S1 results in robust coordinated stepping as early as one week after a complete spinal cord transection. Locomotor behavior observed from a typical rat before the injury and one week after a complete mid-thoracic spinal cord transection. The amount of body weight support provided to the rat is shown in red. One week post-injury, no spontaneous stepping activity is observed. […] Sol, soleus; TA, tibialis anterior; MTP, metatarsal-phalangeal.
FIG. 1 summarizes experiments in rats that were carried out to assess the effectiveness of epidural stimulation coupled with combined drug therapy in acute treatment of complete spinal cord injury.

[2] = one week after complete mid-thoracic spinal cord transection, drug administration without epidural stimulation
[3] = one week post-injury, epidural stimulation at L2 plus S1 with quipazine plus 8-OHDPAT together
[4] = one week post-injury, epidural stimulation simultaneously at L2 plus S1 in combination with either quipazine or 8-OHDPAT

Compound: Oc1cc2c(c(Cl)c1O)CCNCC2c1ccccc1 (stereo not drawn) [SKF-81297]
- Optimal Concentration (stepping in animals; route I.P.): 0.2 mg/kg

Compound: CC1CCN(CC[C@H]2CCCN2S(=O)(=O)c2cccc(O)c2)CC1 [SB 269970]
- Optimal Concentration (stepping in animals; route I.P.): 7 mg/kg

Compound: COc1ccccc1N1CCN(CCN(C(=O)C2CCCCC2)c2ccccn2)CC1 [Way 100.635]
- Optimal Concentration (stepping in animals; route I.P.): 0.5 mg/kg

Compound: c1ccc2nc(N3CCNCC3)ccc2c1 [Quipazine]
- Locomotor behavior (stepping) [1, 2]: erratic movements
- Locomotor behavior (stepping) [1, 3]: coordinated, plantar stepping with features resembling those observed pre-lesion
- Locomotor behavior (stepping) [1, 4]: enables plantar stepping

Compound: Cl.NC1CCN(c2cccc(Cl)n2)CC1 [SR 57227A]
- Optimal Concentration (stepping in animals; route I.P.): 1.5 mg/kg

Compound: CCCN(CCC)C1CCc2cccc(O)c2C1 (stereo not drawn) [8-OHDPAT]
- Locomotor behavior (stepping) [1, 2]: erratic movements
- Locomotor behavior (stepping) [1, 3]: coordinated, plantar stepping with features resembling those observed pre-lesion
- Locomotor behavior (stepping) [1, 4]: enables plantar stepping
- Optimal Concentration (stepping in animals; route S.C.): 0.05 mg/kg

Compound: Cc1nccn1CC1CCc2c(c3ccccc3n2C)C1=O (stereo not drawn) [Ondanesetron]
- Optimal Concentration (stepping in animals; route I.P.): 3 mg/kg
